Experimental data from US10124004B2, “Pyrido[3,4-d]pyrimidine derivative and pharmaceutically acceptable salt thereof” (Teijin Pharma Limited, priority 2015, dated 2018).
Read-outs that look alike come from different tables or passages of the source.

Assays:
CDK4/cyclin D3 = target: T1, CDK4/cyclin D3 (Homo sapiens, UniProt P11802); experiment: Human CDK4/cyclin D3 inhibitory activity (QS S Assist CDK4/Cyclin D3_FP Kit, IMAP fluorescence polarization); format: biochemical
T1 construct: purchased Carna Biosciences, Inc. QS S Assist CDK4/Cyclin D3_FP Kit
Procedure, shortened: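 IMAP fluorescence-polarization kinase assay with kit ATP/substrate/metal mix and 12.5 to 25 ng/well enzyme in 20 mM HEPES pH 7.4, 0.01% Tween20, 2 mM DTT. Reaction ran 45 min at room temperature, then binding reagent was added for 30 min in the dark. IC50 was taken from dose-response fits of percent inhibition.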

CDK2/cyclin A2 = target: T2, CDK2/cyclin A2 (Homo sapiens, UniProt P24941); experiment: Human CDK2/cyclin A2 inhibitory activity (QS S Assist CDK2/Cyclin A2_FP Kit, IMAP fluorescence polarization); format: biochemical
T2 construct: purchased Carna Biosciences, Inc. QS S Assist CDK2/Cyclin A2_FP Kit
Procedure, shortened: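 Kinase activity read as fluorescence polarization (485/535 nm) after phosphorylated fluorescent substrate binds IMAP reagent (30 min, RT, dark). Enzyme (2.5 ng/well) reacted 60 min at RT with ATP/substrate/metal in HEPES pH 7.4 buffer with Tween 20 and DTT; no-enzyme wells define 0% activity; IC50 by curve fit.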

[1] = 50% inhibitory concentration against CDK4/cyclin D3, given as class symbol
[2] = 50% inhibitory concentration against CDK2/cyclin A2, given as class symbol
[3] = Human CDK4/cyclin D3 inhibitory activity, read-out: CDK4 Activity symbol
[4] = Human CDK2/cyclin A2 inhibitory activity, read-out: CDK2 Activity symbol

T1 sequence (P11802 whole entry): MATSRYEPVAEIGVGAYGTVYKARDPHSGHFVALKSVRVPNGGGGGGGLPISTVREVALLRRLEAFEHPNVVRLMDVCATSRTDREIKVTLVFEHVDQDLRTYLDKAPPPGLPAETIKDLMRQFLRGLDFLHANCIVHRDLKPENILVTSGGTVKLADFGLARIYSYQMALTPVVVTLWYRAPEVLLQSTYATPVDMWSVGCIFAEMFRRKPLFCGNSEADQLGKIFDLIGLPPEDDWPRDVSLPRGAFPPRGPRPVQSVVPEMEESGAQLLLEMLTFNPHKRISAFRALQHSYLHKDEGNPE
T1 sequence (P30281 whole entry partner): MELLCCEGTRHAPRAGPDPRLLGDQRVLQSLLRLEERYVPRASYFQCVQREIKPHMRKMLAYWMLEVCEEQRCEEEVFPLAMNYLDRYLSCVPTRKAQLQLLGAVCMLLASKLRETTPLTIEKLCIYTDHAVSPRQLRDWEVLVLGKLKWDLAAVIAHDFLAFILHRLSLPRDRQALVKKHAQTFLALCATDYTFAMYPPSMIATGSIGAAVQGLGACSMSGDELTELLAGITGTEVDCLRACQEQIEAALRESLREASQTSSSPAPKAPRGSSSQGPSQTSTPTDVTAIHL

Structure (SMILES)	IC50 (CDK4/cyclin D3; [1]) [nM]	IC50 (CDK2/cyclin A2; [2]) [nM]	IC50 (CDK4/cyclin D3; [3]) [nM]	IC50 (CDK2/cyclin A2; [4]) [nM]
CC(C)Nc1nc([C@@H](C)O)cc2cnc(Nc3ccc(N4CCN(C(C)(C)C(=O)O)CC4)nn3)nc12 [Compound 657]	< 10	≥ 100		
CC(C)Nc1nc(C(F)F)cc2cnc(Nc3ccc(-n4cnnn4)cn3)nc12 [Compound 211]			10 to 100	10 to 100
CC(C)Nc1nc([C@@H](C)O)c(Cl)c2cnc(Nc3ccc(N4CCC(OCC(=O)O)CC4)nn3)nc12 [Compound 703]	10 to 100	≥ 100		
C[C@@H](O)c1cc2cnc(Nc3ccc(N4CCNCC4)nn3)nc2c(N[C@H]2CCCOC2)n1 [Compound 253]			< 10	≥ 100
CC(C)Nc1nc(C(F)F)cc2cnc(Nc3ccc(CN(C[C@H]4CCCO4)S(C)(=O)=O)cn3)nc12 [Compound 148]			10 to 100	≥ 100
CC(C)Nc1nc(C(F)F)cc2cnc(Nc3ccc(-n4cccn4)cn3)nc12 [Compound 210]			10 to 100	≥ 100
CC(C)Nc1nc(C(F)F)cc2cnc(Nc3ccc(CC(=O)O)cn3)nc12 [Compound 133]			10 to 100	≥ 100
CNCC(F)COc1ccc(Nc2ncc3cc([C@@H](C)OC)nc(NC(C)C)c3n2)nc1 (some centres unmarked) [Compound 509]			< 10	≥ 100
CC(=O)N(C)Cc1ccc(Nc2ncc3cc(C(F)F)nc(NC(C)C)c3n2)nc1 [Compound 139]			< 10	10 to 100
CO[C@H](C)c1cc2cnc(Nc3ccc(N4CCNCC4)nn3)nc2c(NC2CCC(C)(C)OC2)n1 (some centres unmarked) [Compound 727]	< 10	≥ 100		
C[C@@H](O)c1cc2cnc(Nc3ccc(N4CCNCC4=O)cn3)nc2c(NC23CC(C2)C3)n1 [Compound 771]	< 10	≥ 100		
Cc1c([C@@H](C)O)nc(NC(C)C)c2nc(Nc3ccc(N4CCNCC4)cn3)ncc12 [Compound 66]			< 10	≥ 100
COCC(C)(C)Nc1nc([C@@H](C)O)cc2cnc(Nc3ccc(CN4CCc5nc(C)[nH]c5C4)cn3)nc12 [Compound 296]			≥ 100	≥ 100
COCC(C)(C)Nc1nc([C@@H](C)O)cc2cnc(Nc3ccc(CN4CCC(C(=O)O)CC4)cn3)nc12 [Compound 197]			10 to 100	≥ 100
COCC(C)(C)Nc1nc([C@@H](C)O)cc2cnc(Nc3ccc(N4CCOCC4)nn3)nc12 [Compound 216]			10 to 100	≥ 100
FC(F)c1cc2cnc(Nc3ccc(CN4CCNCC4)cn3)nc2c(NC2CCOCC2)n1 [Compound 364]			< 10	10 to 100
CC(C)Nc1nc([C@@H](C)O)cc2cnc(Nc3ccc(N4CCCNCC4=O)cn3)nc12 [Compound 521]			< 10	10 to 100
COCCNCc1ccc(Nc2ncc3cc([C@@H](C)O)nc(NC(C)C)c3n2)nc1 [Compound 241]			< 10	≥ 100
CC(=O)c1cc2cnc(Nc3ccc(N4CCNCC4)cn3)nc2c(NC2CCOCC2)n1 [Compound 56]			< 10	≥ 100
CO[C@H](C)c1cc2cnc(Nc3ccc(CN4CCOCC4=O)cn3)nc2c(NC(C)C)n1 [Compound 199]			10 to 100	≥ 100
C[C@@H](O)c1cc2cnc(Nc3ccc(C4CCN(C(C)(C)C(=O)O)CC4)cn3)nc2c(NC(C)(C)C)n1 [Compound 834]	< 10	≥ 100		
CCNc1nc(C(F)F)cc2cnc(Nc3ccc(N4CCNCC4)cn3)nc12 [Compound 20]			< 10	≥ 100
CC(C)Nc1nc(C(F)F)cc2cnc(Nc3ccc(C4CCNC(=O)C4)cn3)nc12 (centres unmarked) [Compound 218]			< 10	10 to 100
CC(C)Nc1nc([C@@H](C)O)cc2cnc(Nc3cnc(N4CCNCC4=O)cn3)nc12 [Compound 716]	10 to 100	≥ 100		
CC(=O)NCCc1ccc(Nc2ncc3cc(C(F)F)nc(NC(C)C)c3n2)nc1 [Compound 150]			< 10	10 to 100
CC(C)Nc1nc(C(C)O)cc2cnc(Nc3ccc(N4CCN(C(C)CO)CCC4=O)cn3)nc12 (single isomer, unassigned) [Compound 810]	< 10	≥ 100		
CC(C)CNc1nc([C@@H](C)O)cc2cnc(Nc3ccc(N4CCNCC4=O)cn3)nc12 [Compound 826]	< 10	≥ 100		
C[C@@H](O)c1cc2cnc(Nc3ccc(OCCN(C)C)cn3)nc2c(N[C@H]2CCCOC2)n1 [Compound 629]	< 10	≥ 100		
CC(C)Nc1nc(C(C)O)cc2cnc(Nc3ccc(C4CNCCO4)cn3)nc12 (single isomer, unassigned) [Compound 735]	< 10	≥ 100		
COC(C)c1cc2cnc(Nc3ccc(CN4CCNCC4)cn3)nc2c(SC(C)C)n1 (centres unmarked) [Compound 456]			< 10	≥ 100

The remaining lines, values ahead:

IC50 (CDK4/cyclin D3; [1]) [nM]	IC50 (CDK2/cyclin A2; [2]) [nM]	IC50 (CDK4/cyclin D3; [3]) [nM]	IC50 (CDK2/cyclin A2; [4]) [nM]	Structure (SMILES)
< 10	≥ 100			C[C@@H](O)c1cc2cnc(Nc3ccc(CC4CCNCC4)cn3)nc2c(NCC2CCOCC2)n1 [Compound 952]
< 10	≥ 100			Cc1nc(Nc2ncc3cc(C4CCOC4)nc(NC(C)C)c3n2)ccc1N1CCNCC1=O (single isomer, unassigned) [Compound 875]
10 to 100	≥ 100			CCC(OC)c1cc2cnc(Nc3ccc(N4CCNCC4)nn3)nc2c(NC(C)C)n1 (centres unmarked) [Compound 1069]
< 10	≥ 100			CCCNc1nc([C@@H](C)O)cc2cnc(Nc3ccc(CN4CCN(CCO)C[C@@H]4C)cn3)nc12 [Compound 1077]
< 10	≥ 100			CCNc1nc(C2(C)COC2)cc2cnc(Nc3ccc(CN4CCNCC4)cn3)nc12 [Compound 1107]
< 10	≥ 100			CC(C)Nc1nc([C@@H](C)O)cc2cnc(Nc3ccc(N4CCn5ccnc5C4)nn3)nc12 [Compound 898]
< 10	≥ 100			CCCNc1nc([C@@H](C)O)cc2cnc(Nc3ccc(N4CCN(C)CC4)nn3)nc12 [Compound 1102]
< 10	≥ 100			CC(=O)c1cc2cnc(Nc3ccc(CN4CCNCC4)cn3)nc2c(NCC(C)C)n1 [Compound 912]
10 to 100	≥ 100			CO[C@H](C)c1cc2cnc(Nc3ccc(N4CCN(CC(=O)O)CC4=O)cn3)nc2c(NC(C)C)n1 [Compound 894]
< 10	≥ 100			CC(C)Nc1nc(C2CCOC2)cc2cnc(Nc3ccc4c(n3)CCN(CCN(C)C)C4)nc12 (centres unmarked) [Compound 1230]
< 10	≥ 100			O=C(CO)N1CCc2nc(Nc3ncc4cc(C5CCOC5)nc(N[C@H]5CC[C@H](O)CC5)c4n3)ccc2C1 (some centres unmarked) [Compound 1145]
< 10	≥ 100			CC(C)Nc1nc([C@@H](C)O)cc2cnc(Nc3ccc(N4CCN(C(=O)C5CCCO5)CC4)nn3)nc12 (some centres unmarked) [Compound 1183]
< 10	≥ 100			C[C@@H](O)c1cc2cnc(Nc3ccc(N4CCNCC4=O)cn3)nc2c(NC2CCC2)n1 [Compound 1045]
< 10	≥ 100			c1cc2c(nc1Nc1ncc3cc(C4CCOC4)nc(N[C@H]4CCCOC4)c3n1)CCNC2 (some centres unmarked) [Compound 886]
< 10	≥ 100			C[C@@H](O)c1cc2cnc(Nc3ccc(CN4CCCC(O)C4)cn3)nc2c(NCC2CCOCC2)n1 (some centres unmarked) [Compound 1087]
< 10	≥ 100			CCNc1nc([C@@H](C)O)cc2cnc(Nc3ccc(CN4CCN(CCO)CC4)c(C)n3)nc12 [Compound 1046]
